Measured values: patent US7816409B2, “Stable pharmaceutical composition of fluoroether compound for anesthetic use method for stabilizing a fluoroether compound, use of stabilizer agent for precluding the degradation of a fluoroether compound” (Cristalia Productos Quimicos Farmaceuticos LTDA, priority 2003, dated 2010)
Values belong to the molecule of their own block, whether it stands above or below them.

Key:
[1] = Limit of fluoride in sevoflurane after stress with alumina; type: physicochemical
Description: (§1) In this study alumina was employed in a final concentration of 1 mg per mL of sevoflurane.
Another important factor observed in the present study is the quantity of fluoride in the sample submitted to stress.
(§2) Alumina was employed in a final concentration of 1 mg per mL of sevoflurane.

[2] = Chromatographic purity and impurities of sevoflurane after stress with alumina (Pharmacopeial Forum USP specifications); type: physicochemical; details: for degradation of sevoflurane by alumina: Example 5, 260 ppm stabilizer
Description: as §1, §2

[3] = Stress degradation of sevoflurane with or without alumina, gas chromatography with toluene internal standard; type: physicochemical
Description: In the following examples, all analyses by gas chromatography were carried out by adding 2 μL of toluene (internal standard) in 10 mL of sample of sevoflurane in study. The analysis was done in duplicates and for each chromatogram obtained was calculated the ratio of the area of each impurity/area of toluene.
In two type III glass bottle with capacity of 100 mL, was added 20 mL of anhydrous sevoflurane and in one of the bottles was added 20 mg of alumina totalizing 1.0 mg of Al2O3 per mL of sevoflurane. Both bottles were closed with a stopper and screw metallic cap and heated in a stove at 60° C. for 22 hours. After that period, the samples were analyzed in duplicates by gas chromatography using the internal standard addition method (toluene). […] The degradation products of sevoflurane monitored by gas chromatography, HFIP, Acetal, 2, 5, 7 and 8, are present in high amounts in the samples of sevoflurane containing alumina after heating, as presented in FIG. 4.
The samples were prepared and placed in type III glass bottle and the bottles were closed with stopper and screw metallic cap.
The samples were submitted to two stress conditions by heating in stove at 60° C. for a cycle of 22 hours and other of 72 hours.
The sample was prepared to contain 0, 50, 200, 600, 1000 and 1400 ppm of the stabilizer agent. […] The study comprises put sevoflurane in contact with an acid substance, submits the samples to a stress by heating at 60° C. for 22 hours and, by comparison evaluates the chromatographic purity of sevoflurane after stress. The activated alumina was employed as acid substance in a constant quantity of 1 mg per mL of sevoflurane.
In type III glass bottle with capacity for 100 mL was transferred 20 mL of test sevoflurane containing determined quantities of the stabilizer agent (0, 50, 200, 600, 1000 and 1400 ppm) and 20 mg of alumina. The bottles were immediately closed with a stopper and a screw metallic cap. These bottles were heated in a stove at 60° C. for 22 hours. After the stress the samples were analyzed in duplicate by gas chromatography using the internal standard addition method (toluene). In parallel, studies were done with the quantity determined of the stabilizer (0, 50, 200, 600, 1000 and 1400 ppm) without alumina.
Table 2 resumes the tests realized with the agents propylene glycol and menthol proposed for the stabilization of sevoflurane against the degradation by alumina and the results for total impurity and for the single impurity HFIP obtained with and without alumina after stress at 60° C. for 22 hours. The total impurity is the sum of the ratio between the area for each impurity and the area of the internal standard (toluene) and HFIP is the ratio between the area of HFIP and the area of toluene obtained in the chromatograms.

[4] = Saturation level / solubility of stabilizer in sevoflurane
Source text: The stabilizer agent for the fluoroether compound, and most particularly for the sevoflurane, is employed in concentration ranging from 0.001% in weight in relation to the weight of sevoflurane until its level of saturation in the sevoflurane, that is, the maximum concentration in which it keeps soluble in the sevoflurane. The amount of stabilizer agent to achieve its saturation depends on the stabilizer and temperature, and can be high due to the solubility profile among these substances.
Among the appropriate polyalcohols to the stabilization of the fluoroether compound sevoflurane, propylene glycol, polyethylene glycol, hexylene glycol and 1,3-butileneglycol are chosen. […] As cited before, the amount of the stabilizer agent will range from 0.001% in weight until its saturation level in sevoflurane. […] Therefore, in a general way, the polyalcohols are preferably employed in amounts ranging from 0.001% to 5.0% in weight in relation to the weight of sevoflurane.

[5] = Table 6, initial analysis of anhydrous sevoflurane before stress
[6] = Table 4, initial analysis of anhydrous sevoflurane before stress
[7] = anhydrous sevoflurane, stabilizer 0 ppm, 60° C. for 22 hours, 0 mg of Al2O3
[8] = anhydrous sevoflurane, stabilizer 0 ppm, 60° C. for 22 hours, 20 mg of Al2O3
[9] = anhydrous sevoflurane, stabilizer 50 ppm, 60° C. for 22 hours, 0 mg of Al2O3
[10] = anhydrous sevoflurane, stabilizer 50 ppm, 60° C. for 22 hours, 20 mg of Al2O3
[11] = anhydrous sevoflurane, stabilizer 200 ppm, 60° C. for 22 hours, 0 mg of Al2O3
[12] = anhydrous sevoflurane, stabilizer 200 ppm, 60° C. for 22 hours, 20 mg of Al2O3
[13] = anhydrous sevoflurane, stabilizer 600 ppm, 60° C. for 22 hours, 0 mg of Al2O3
[14] = anhydrous sevoflurane, stabilizer 600 ppm, 60° C. for 22 hours, 20 mg of Al2O3
[15] = anhydrous sevoflurane, stabilizer 1000 ppm, 60° C. for 22 hours, 0 mg of Al2O3
[16] = anhydrous sevoflurane, stabilizer 1000 ppm, 60° C. for 22 hours, 20 mg of Al2O3
[17] = anhydrous sevoflurane, stabilizer 1400 ppm, 60° C. for 22 hours, 0 mg of Al2O3
[18] = anhydrous sevoflurane, stabilizer 1400 ppm, 60° C. for 22 hours, 20 mg of Al2O3
[19] = sevoflurane, stabilizer 50 ppm, stress at 60° C. for 12 hours, 0 mg of Al2O3
[20] = sevoflurane, stabilizer 50 ppm, stress at 60° C. for 12 hours, 20 mg of Al2O3
[21] = Table 5, sevoflurane with 260 ppm stabilizer, alumina 1 mg per mL, 60° C. for 22 hours
[22] = alumina 1 mg per mL, 60° C. for 22 hours
[23] = Table 4, sevoflurane with 260 ppm stabilizer, alumina 1 mg per mL, 60° C. for 22 hours
[24] = Table 6, sevoflurane with water 260 ppm or PG + water 260:260 ppm, alumina 1 mg per mL, 60° C. for 22 hours

Molecule: FCOC(C(F)(F)F)C(F)(F)F [Anhydrous Sevoflurane, fluoromethyl 2,2,2-trifluoro-1-(trifluoromethyl)ethyl ether]
- Limit of fluoride ([1]; Table 5, initial analysis of anhydrous sevoflurane before stress): 0.050 µg/mL
- Limit of fluoride [1, 5]: 0.072 µg/mL
- Compound A [2, 6]: 11.2 µg/g
- Purity [2, 6]: 99.9798%
- Single impurity [2, 6]: 63.7 µg/g
- Total Impurity [2, 6]: 201.8 µg/g
- Purity [2, 5]: 99.9907%
- Single impurity [2, 5]: 42.1 µg/g
- Total impurities [2, 5]: 93.0 µg/g

Molecule: O [Water]
- water content from which degradation of sevoflurane by alumina is inhibited ([3]; Example 2, alumina 1 mg per mL, 60° C.): ≥ 600 ppm
- degradation of sevoflurane by alumina ([3]; Example 4, 50 ppm stabilizer, alumina 1 mg per mL): incapable to completely inhibit
- increase of impurity HFIP value in relation to the sample without alumina ([3]; sevoflurane containing water, with alumina): about 10 times
- Limit of fluoride [1, 21]: 16.950 µg/mL
- Limit of fluoride [1, 24]: 15.340 µg/mL
- degradation of sevoflurane by alumina [2, 22]: didn't inhibit the degradation
- Compound A [2, 23]: 11.8 µg/g
- Purity [2, 23]: 99.8944%
- Single impurity [2, 23]: 403 µg/g
- Total Impurity [2, 23]: 1056.1 µg/g
- Purity [2, 24]: 99.8899%
- Single impurity [2, 24]: 422.8 µg/g
- Total impurities [2, 24]: 1101.3 µg/g

Molecule: PEG 400
- solubility in sevoflurane [4]: freely soluble

Next, values leading:

- HFIP (average ratio area of HFIP/area of toluene) [3, 7]: 0.0408
- Total Impurity (average sum of ratios area of each impurity/area of toluene) [3, 7]: 0.3083
- HFIP (average ratio area of HFIP/area of toluene) [3, 8]: 0.8914
- Total Impurity (average sum of ratios area of each impurity/area of toluene) [3, 8]: 37.5478
- HFIP (average ratio area of HFIP/area of toluene) [3, 9]: 0.04541
- Total Impurity (average sum of ratios area of each impurity/area of toluene) [3, 9]: 0.3174
- HFIP (average ratio area of HFIP/area of toluene) [3, 10]: 0.6402
- Total Impurity (average sum of ratios area of each impurity/area of toluene) [3, 10]: 1.0412
- HFIP (average ratio area of HFIP/area of toluene) [3, 11]: 0.04228
- Total Impurity (average sum of ratios area of each impurity/area of toluene) [3, 11]: 0.2918
- HFIP (average ratio area of HFIP/area of toluene) [3, 12]: 0.5880
- Total Impurity (average sum of ratios area of each impurity/area of toluene) [3, 12]: 1.0773
- HFIP (average ratio area of HFIP/area of toluene) [3, 13]: 0.04445
- Total Impurity (average sum of ratios area of each impurity/area of toluene) [3, 13]: 0.3319
- HFIP (average ratio area of HFIP/area of toluene) [3, 14]: 0.4426
- Total Impurity (average sum of ratios area of each impurity/area of toluene) [3, 14]: 1.0001
- HFIP (average ratio area of HFIP/area of toluene) [3, 15]: 0.04669
- Total Impurity (average sum of ratios area of each impurity/area of toluene) [3, 15]: 0.3627
- HFIP (average ratio area of HFIP/area of toluene) [3, 16]: 0.3787
- Total Impurity (average sum of ratios area of each impurity/area of toluene) [3, 16]: 0.9486
- HFIP (average ratio area of HFIP/area of toluene) [3, 17]: 0.04325
- Total Impurity (average sum of ratios area of each impurity/area of toluene) [3, 17]: 0.3644
- HFIP (average ratio area of HFIP/area of toluene) [3, 18]: 0.3329
- Total Impurity (average sum of ratios area of each impurity/area of toluene) [3, 18]: 1.0156
- saturation level in sevoflurane [4]: about 6.8%
Molecule: CC1CCC(C(C)C)C(O)C1 (stereo not drawn) [MENTHOL, (1 alpha, 2 beta, 5 alpha)-5-methyl-2-(1-methylethyl)cyclohexanol]

- HFIP (average ratio area of HFIP/area of toluene) [3, 7]: 0.0491
- Total Impurity (average sum of ratios area of each impurity/area of toluene) [3, 7]: 0.3304
- HFIP (average ratio area of HFIP/area of toluene) [3, 8]: 0.6680
- Total Impurity (average sum of ratios area of each impurity/area of toluene) [3, 8]: 31.65
- HFIP (average ratio area of HFIP/area of toluene) [3, 9]: 0
- Total Impurity (average sum of ratios area of each impurity/area of toluene) [3, 9]: 0.3293
- HFIP (average ratio area of HFIP/area of toluene) [3, 10]: 0.05996
- Total Impurity (average sum of ratios area of each impurity/area of toluene) [3, 10]: 0.3925
- HFIP (average ratio area of HFIP/area of toluene) [3, 11]: 0.04474
- Total Impurity (average sum of ratios area of each impurity/area of toluene) [3, 11]: 0.3546
- HFIP (average ratio area of HFIP/area of toluene) [3, 12]: 0.04072
- Total Impurity (average sum of ratios area of each impurity/area of toluene) [3, 12]: 0.2823
- HFIP (average ratio area of HFIP/area of toluene) [3, 13]: 0.04694
- Total Impurity (average sum of ratios area of each impurity/area of toluene) [3, 13]: 0.2925
- HFIP (average ratio area of HFIP/area of toluene) [3, 14]: 0.04603
- Total Impurity (average sum of ratios area of each impurity/area of toluene) [3, 14]: 0.3158
- HFIP (average ratio area of HFIP/area of toluene) [3, 15]: 0.04038
- Total Impurity (average sum of ratios area of each impurity/area of toluene) [3, 15]: 0.3800
- HFIP (average ratio area of HFIP/area of toluene) [3, 16]: 0.04353
- Total Impurity (average sum of ratios area of each impurity/area of toluene) [3, 16]: 0.3189
- HFIP (average ratio area of HFIP/area of toluene) [3, 17]: 0.04159
- Total Impurity (average sum of ratios area of each impurity/area of toluene) [3, 17]: 0.3061
- HFIP (average ratio area of HFIP/area of toluene) [3, 18]: 0.04236
- Total Impurity (average sum of ratios area of each impurity/area of toluene) [3, 18]: 0.3235
- HFIP (average ratio area of HFIP/area of toluene) [3, 19]: 0.00338
- Total Impurity (average sum of ratios area of each impurity/area of toluene) [3, 19]: 0.3236
- HFIP (average ratio area of HFIP/area of toluene) [3, 20]: 0.02051
- Total Impurity (average sum of ratios area of each impurity/area of toluene) [3, 20]: 0.3963
- saturation level in sevoflurane [4]: around 2.5%
- Limit of fluoride [1, 21]: 0.051 µg/mL
- degradation of sevoflurane by alumina [2, 22]: didn't show any degradation
- Compound A [2, 23]: 11.3 µg/g
- Purity [2, 23]: 99.9774%
- Single impurity [2, 23]: 61.7 µg/g
- Total Impurity [2, 23]: 226.3 µg/g
Molecule: CC(O)CO (centres unmarked) [Propylene glycol, 1,2-propanediol]
